Data taken from US5434256A, “Diamine platinum complexes as antitumor agents” (priority 1994, dated 1995).
pIC50: −log10 of the molar value. Entries after “also recorded” stand apart in the source; their conditions may differ.

Tests used:
[1] = Renal and hematological toxicity, single i.p. dose (Table 8); conditions: for BUN d.5: blood urea nitrogen, saline control 20.9; for BUN d.5 / Survivors on d.14 / Body Wt. on d.5: single i.p. dose (mg/kg): 1,4-DACH-Pt^II CBDCA 300, 1,4-DACH-Pt^IV Cl4 8.0, Tetraplatin 8.0, Cis-platin 12.0, Carboplatin 150; for Body Wt. on d.5: mean, S.D. less than 20%; for myelotoxicity / myelosuppression (in words): leucopenia
M5076 Tumor Model = assay: In vivo antitumor activity against M5076 tumor model (Example 3, Table 4); parameters: species or system BDF1 mice; TGD (Tumor Growth Delay): unit not given beside the values; conditions: M5076 s.c., BDF1 mice, i.p. days 7, 14, 21, 28; for TGD (Tumor Growth Delay): at optimal dose/MTD
Procedure: (§1) Each of the platinum complexes was evaluated in vivo against L1210/0, L1210/DDP, L1210/DACH and M5076 cells at several dose levels. […] The data at optimal doses are reproduced in Tables 4-7 along with data for the cyclobutanedicarboxylato, aquasulfato, methylmalonato and tartronato analogs (compounds 1-4 in Table 1).
BDF1 mice inoculated s.c. with 10' M5076 cells on day 0 and drug
administered i.p on days 7, 14, 21, and 28. MTD = Maximum Tolerated Dose
(mg/kg/injection), TGD = Tumor Growth Delay

L1210/0 cells = assay: Modified MTT cytotoxicity assay, murine leukemia L1210/0 (Example 2, Table 3); type: cell-based; conditions: L1210/0; MTT, continuous exposure 5 days
Murine Leukemia 1210/DDP = assay: In vivo antitumor activity against murine leukemia L1210/DDP (Example 3, Table 7); parameters: species or system BDF1 mice; conditions: for % T/C (mean survival time of treated/mean survival time of control) × 100: at optimal dose/MTD
Procedure: as §1
(§2) BDF1 mice inoculated i.p. with 10^5 L1210 Leukemia cells on day 0 and
drug administed i.p. on days 1, 5, and 9. MTD = Maximum Tolerated Dose
(§3) (mg/kg/injection), % T/C = (mean survival time of treated/mean survival
(§4) time of control) × 100. Figures in parenthesis indicated long term

[2] = system: Murine Leukemia L1210/DACH; assay: In vivo antitumor activity against murine leukemia L1210/DACH (Example 3, Table 6); parameters: species or system BDF1 mice; conditions: for MTD (Maximum Tolerated Dose) / % T/C (mean survival time of treated/mean survival time of control) × 100 / long term survivors/no. tested: L1210/DACH i.p., BDF1 mice, drug i.p. days 1, 5, 9; for % T/C (mean survival time of treated/mean survival time of control) × 100: at optimal dose/MTD; for long term survivors/no. tested: figures in parenthesis
Procedure: as §1, §2
(§5) drug administered i.p. on days 1, 5, and 9. MTD = Maximum Tolerated Dose
as §3, §4

A2780 cells = assay: Modified MTT cytotoxicity assay, human ovarian A2780 (Example 2, Table 3); type: cell-based; conditions: continuous exposure (5 days in table footnote; 7 days in text)
Murine Leukemia L1210/0 = assay: In vivo antitumor activity against murine leukemia L1210/0 (Example 3, Table 5); parameters: species or system BDF1 mice; conditions: for MTD (Maximum Tolerated Dose) / % T/C (mean survival time of treated/mean survival time of control) × 100 / long term survivors/no. tested: L1210/0 i.p., BDF1 mice, drug i.p. days 1, 5, 9; for % T/C (mean survival time of treated/mean survival time of control) × 100: at optimal dose/MTD; for long term survivors/no. tested: figures in parenthesis
Procedure: as §1
BDF1 mice inoculated i.p. with 10^5 L1210 Leukemiacells on day 0 and
as §5, §3
time of control) × 100. Figures in parenthesis indicate long term

[3] = L1210/DDP i.p., BDF1 mice, drug i.p. days 1, 5, 9

| Structure (SMILES) | BUN d.5 [1] [mg %] | Body Wt. on d.5 [1] [% on control] | MTD (Maximum Tolerated Dose) (M5076 Tumor Model) [mg/kg/injection] | TGD (Tumor Growth Delay) (M5076 Tumor Model) | pIC50 (L1210/0 cells) | MTD (Maximum Tolerated Dose) [2] [mg/kg/injection] | % T/C (mean survival time of treated/mean survival time of control) × 100 [2] [%] | long term survivors/no. tested [2] | pIC50 (A2780 cells) | MTD (Maximum Tolerated Dose) (Murine Leukemia L1210/0) [mg/kg/injection] | % T/C (mean survival time of treated/mean survival time of control) × 100 (Murine Leukemia L1210/0) [%] | long term survivors/no. tested (Murine Leukemia L1210/0) | also measured |
| --- | --- | --- | --- | --- | --- | --- | --- | --- | --- | --- | --- | --- | --- |
| N.N.O=C([O-])C1(C(=O)[O-])CCC1.[Pt+2] [Carboplatin] | 15.8 | 79 | – | – | – | – | – | – | – | – | – | – | Survivors on d.14 [1]: 0/5; myelotoxicity / myelosuppression (in words) ([1]; single i.p. dose): myelosuppressive |
| NC1CCC(N)CC1.O.O=C([O-])C1(C(=O)[O-])CCC1.[Pt+2] [Compound 1, Cis-1,4-diaminocyclohexane-1,1-cyclobutanedicarboxylato-platinum(II).H2 O] | 18.0 | 99 | 200 | 42.3 | 5.80 | 200 | 180 | 1/5 | 6.37 | 200 | 195 | – | antitumor activity in vivo against L1210/DDP (in words) (Murine Leukemia 1210/DDP): inactive |
| NC1CCC(N)CC1.O.O=S(=O)([O-])[O][Pt+] (stereo not drawn) [Compound 2, Cis-1,4-Diaminocyclohexaneaquasulfatoplatinum(II)] | – | – | 3.1 | 12.1 | 7.10 | 1.56 | 140 | 1/5 | 7.30 | 1.56 | > 571 | 3/5 | – |
| CC(C(=O)[O-])C(=O)[O-].N[C@H]1CC[C@@H](N)CC1.O.[Pt+2] [Compound 3, Cis-1,4-Diaminocyclohexanemethylmalonatoplatinum(II). H2 O] | – | – | 200 | 23.62 | 6.55 | 100 | 180 | 1/5 | 6.89 | 200 | 382 | 1/5 | – |
| NC1CCC(N)CC1.O=C1[O][Pt][O]C(=O)C1O [Compound 4, Cis-1,4-diaminocyclohexanetartronatoplatinum(II)] | – | – | 50 | 30.66 | 6.30 | 50 | 343 | 4/5 | 6.96 | 25 | 406 | 1/5 | MTD (Maximum Tolerated Dose) (Murine Leukemia 1210/DDP; [3]): 50 mg/kg/injection; % T/C (mean survival time of treated/mean survival time of control) × 100 (Murine Leukemia 1210/DDP; [3]): 187%; antitumor activity in vivo against L1210/DACH (in words) ([2]; L1210/DACH): highly active; cure rate ([2]; L1210/DACH, Table 6): 80% |
| NC1CCC(N)CC1.O=C1[O][Pt][O]C1=O (stereo not drawn) [Compound 5, Cis-1,4-diaminocyclohexaneoxalatoplatinum(II)] | – | – | – | – | 6.62 | – | – | – | 7.22 | – | – | – | – |
| N[C@H]1CC[C@@H](N)CC1.O=C([O-])CC(=O)[O-].[Pt+2] [Compound 6, Cis-1,4-diaminocyclohexanemalonatoplatinum(II)] | – | – | – | – | 6.47 | – | – | – | 7.10 | – | – | – | – |
| NC1CCC(N)CC1.[Cl][Pt]([Cl])([Cl])[Cl] (stereo not drawn) [Compound 7, Cis-1,4-Diaminocyclohexanetetrachloroplatinum(IV)] | 21.3 | 89 | 3.1 | 18.74 | 6.92 | 3.1 | 146 | – | 7.05 | 3.1 | 335 | 2/5 | Survivors on d.14 [1]: 4/5; nephrotoxicity (in words) ([1]; single i.p. dose, BUN): did not show any indication of nephrotoxicity; myelotoxicity / myelosuppression (in words) ([1]; single i.p. dose): did not show any indication of nephrotoxicity or myelotoxicity; antitumor activity in vivo against L1210/DDP (in words) (Murine Leukemia 1210/DDP): good activities; also recorded: comparable or slightly greater activity; MTD (Maximum Tolerated Dose) (Murine Leukemia 1210/DDP; [3]): 3.1 mg/kg/injection; % T/C (mean survival time of treated/mean survival time of control) × 100 (Murine Leukemia 1210/DDP; [3]): 170%; long term survivors/no. tested (Murine Leukemia 1210/DDP; L1210/DDP i.p., BDF1 mice, drug i.p. days 1, 5, 9, figures in parenthesis): 1/5; antitumor activity in vivo against L1210/DACH (in words) ([2]; L1210/DACH): good activities; also recorded: good activity; antitumor activity in vivo against L1210/0 (in words) (Murine Leukemia L1210/0; L1210/0): excellent activity; also recorded: comparable or slightly greater activity |
| NC1CCC(N)CC1.[OH][Pt]([OH])([Cl])[Cl] (stereo not drawn) [Compound 8, Cis-1,4-diaminocyclohexanedichlorodihydroxoplatinum(IV)] | – | – | – | – | 6.06 | – | – | – | 6.85 | – | – | – | – |
